Legend:
[1] = system: ISC-enriched organoids; test: Primary screen, 384-well 2.5-D organoid differentiation (ENR+CD, 6 days): basal lysozyme secretion (LYZ.NS); format: cell-based, murine; settings: for Dose.FC.LYZ.NS / Z.LYZ.NS (standard z score) / Dose.FC.LYZ.NS (log 2 fold change): primary screen; for Dose.FC.LYZ.NS: FC vs plate median; for Z.LYZ.NS: standard z score of FC; for Dose.FC.LYZ.NS (log 2 fold change): vs plate median
Excerpt: (§1) High-throughput screening.

[2] = system: ISC-enriched organoids; test: Primary screen, 384-well 2.5-D organoid differentiation (ENR+CD, 6 days): carbachol-induced lysozyme secretion (LYZ.S); format: cell-based, murine; settings: primary screen; for Dose.FC.LYZ.S: FC vs plate median; for Dose.FC.LYZ.S (log 2 fold change): vs plate median
Excerpt: as §1

[3] = system: ISC-enriched organoids; test: Primary screen, 384-well 2.5-D organoid differentiation (ENR+CD, 6 days, Target Selective Inhibitor Library, vs whole-plate median): ATP (CellTiter-Glo 3D, CTG); settings: for Dose.FC.CTG / Z.CTG (standard z score) / Dose.FC.CTG (log 2 fold change): primary screen; for Dose.FC.CTG: FC vs plate median; for Z.CTG: standard z score of FC; for Dose.FC.CTG (log 2 fold change): vs plate median

Structure (SMILES) | Z.LYZ.NS (standard z score) ([1]; Dose 0.08 uM) | Dose.FC.LYZ.NS (log 2 fold change) ([1]; Dose 0.08 uM) | Z.LYZ.NS (standard z score) ([1]; Dose 0.40 uM) | Dose.FC.LYZ.NS (log 2 fold change) ([1]; Dose 0.40 uM) | Z.LYZ.NS (standard z score) ([1]; Dose 2.00 uM) | Dose.FC.LYZ.NS (log 2 fold change) ([1]; Dose 2.00 uM) | Z.LYZ.NS (standard z score) ([1]; Dose 10.00 uM) | Dose.FC.LYZ.NS (log 2 fold change) ([1]; Dose 10.00 uM) | Dose.FC.LYZ.S (log 2 fold change) ([2]; Dose 0.08 uM) | Dose.FC.LYZ.S (log 2 fold change) ([2]; Dose 0.40 uM) | Dose.FC.LYZ.S (log 2 fold change) ([2]; Dose 2.00 uM) | Dose.FC.LYZ.S (log 2 fold change) ([2]; Dose 10.00 uM) | Z.CTG (standard z score) ([3]; Dose 0.08 uM) | Dose.FC.CTG (log 2 fold change) ([3]; Dose 0.08 uM) | Z.CTG (standard z score) ([3]; Dose 0.40 uM) | Dose.FC.CTG (log 2 fold change) ([3]; Dose 0.40 uM) | Z.CTG (standard z score) ([3]; Dose 2.00 uM) | Dose.FC.CTG (log 2 fold change) ([3]; Dose 2.00 uM) | Z.CTG (standard z score) ([3]; Dose 10.00 uM) | Dose.FC.CTG (log 2 fold change) ([3]; Dose 10.00 uM) | also measured
CC(=O)O[C@H]1C[C@@H]2CC[C@@H]3[C@H](CC[C@@]4(C)[C@H]3C[C@H]([N+]3(C)CCCCC3)[C@@H]4OC(C)=O)[C@@]2(C)C[C@@H]1[N+]1(C)CCCCC1.[Br-].[Br-] [Pancuronium dibromide] | – | – | – | – | – | – | – | – | – | – | – | – | – | – | – | – | – | – | – | – | Dose.FC.LYZ.NS ([1]; Dose 0.08 uM): 0.128 log 2 fold change; Z.LYZ.NS ([1]; Dose 0.08 uM): 1.118; Dose.FC.LYZ.NS ([1]; Dose 0.40 uM): 0.047 log 2 fold change; Z.LYZ.NS ([1]; Dose 0.40 uM): 0.406; Dose.FC.LYZ.NS ([1]; Dose 2.00 uM): 0.093 log 2 fold change; Z.LYZ.NS ([1]; Dose 2.00 uM): 0.806; Dose.FC.LYZ.NS ([1]; Dose 10.00 uM): 0.035 log 2 fold change; Z.LYZ.NS ([1]; Dose 10.00 uM): 0.302; Dose.FC.LYZ.S ([2]; Dose 0.08 uM): 0.213 log 2 fold change; Dose.FC.LYZ.S ([2]; Dose 0.40 uM): 0.094 log 2 fold change; Dose.FC.LYZ.S ([2]; Dose 2.00 uM): 0.099 log 2 fold change; Dose.FC.LYZ.S ([2]; Dose 10.00 uM): 0.004 log 2 fold change; Dose.FC.CTG ([3]; Dose 0.08 uM): 0.217 log 2 fold change; Z.CTG ([3]; Dose 0.08 uM): 0.519; Dose.FC.CTG ([3]; Dose 0.40 uM): 0.226 log 2 fold change; Z.CTG ([3]; Dose 0.40 uM): 0.541; Dose.FC.CTG ([3]; Dose 2.00 uM): −0.012 log 2 fold change; Z.CTG ([3]; Dose 2.00 uM): −0.029; Dose.FC.CTG ([3]; Dose 10.00 uM): 0.062 log 2 fold change; Z.CTG ([3]; Dose 10.00 uM): 0.148
Cc1[nH]c2ccccc2c1CCNCc1ccc(/C=C/C(=O)NO)cc1 [Panobinostat (LBH589)] | – | – | – | – | – | – | – | – | – | – | – | – | – | – | – | – | – | – | – | – | Dose.FC.LYZ.NS ([1]; Dose 0.08 uM): 0.002 log 2 fold change; Z.LYZ.NS ([1]; Dose 0.08 uM): 0.014; Dose.FC.LYZ.NS ([1]; Dose 0.40 uM): −0.027 log 2 fold change; Z.LYZ.NS ([1]; Dose 0.40 uM): −0.232; Dose.FC.LYZ.NS ([1]; Dose 2.00 uM): −0.153 log 2 fold change; Z.LYZ.NS ([1]; Dose 2.00 uM): −1.329; Dose.FC.LYZ.NS ([1]; Dose 10.00 uM): −0.217 log 2 fold change; Z.LYZ.NS ([1]; Dose 10.00 uM): −1.891; Dose.FC.LYZ.S ([2]; Dose 0.08 uM): −0.034 log 2 fold change; Dose.FC.LYZ.S ([2]; Dose 0.40 uM): −0.042 log 2 fold change; Dose.FC.LYZ.S ([2]; Dose 2.00 uM): −0.285 log 2 fold change; Dose.FC.LYZ.S ([2]; Dose 10.00 uM): −0.320 log 2 fold change; Dose.FC.CTG ([3]; Dose 0.08 uM): 0.295 log 2 fold change; Z.CTG ([3]; Dose 0.08 uM): 0.706; Dose.FC.CTG ([3]; Dose 0.40 uM): 0.212 log 2 fold change; Z.CTG ([3]; Dose 0.40 uM): 0.506; Dose.FC.CTG ([3]; Dose 2.00 uM): −0.537 log 2 fold change; Z.CTG ([3]; Dose 2.00 uM): −1.283; Dose.FC.CTG ([3]; Dose 10.00 uM): −1.003 log 2 fold change; Z.CTG ([3]; Dose 10.00 uM): −2.395
O=C(NNc1ccccc1)c1ccncc1 [PluriSIn #1 (NSC 14613)] | – | – | – | – | – | – | – | – | – | – | – | – | – | – | – | – | – | – | – | – | Dose.FC.LYZ.NS ([1]; Dose 0.08 uM): 0.083 log 2 fold change; Z.LYZ.NS ([1]; Dose 0.08 uM): 0.720; Dose.FC.LYZ.NS ([1]; Dose 0.40 uM): 0.004 log 2 fold change; Z.LYZ.NS ([1]; Dose 0.40 uM): 0.039; Dose.FC.LYZ.NS ([1]; Dose 2.00 uM): −0.107 log 2 fold change; Z.LYZ.NS ([1]; Dose 2.00 uM): −0.929; Dose.FC.LYZ.NS ([1]; Dose 10.00 uM): −0.284 log 2 fold change; Z.LYZ.NS ([1]; Dose 10.00 uM): −2.475; Dose.FC.LYZ.S ([2]; Dose 0.08 uM): 0.057 log 2 fold change; Dose.FC.LYZ.S ([2]; Dose 0.40 uM): −0.007 log 2 fold change; Dose.FC.LYZ.S ([2]; Dose 2.00 uM): −0.133 log 2 fold change; Dose.FC.LYZ.S ([2]; Dose 10.00 uM): −0.372 log 2 fold change; Dose.FC.CTG ([3]; Dose 0.08 uM): −0.146 log 2 fold change; Z.CTG ([3]; Dose 0.08 uM): −0.349; Dose.FC.CTG ([3]; Dose 0.40 uM): −0.095 log 2 fold change; Z.CTG ([3]; Dose 0.40 uM): −0.226; Dose.FC.CTG ([3]; Dose 2.00 uM): −0.433 log 2 fold change; Z.CTG ([3]; Dose 2.00 uM): −1.035; Dose.FC.CTG ([3]; Dose 10.00 uM): −0.853 log 2 fold change; Z.CTG ([3]; Dose 10.00 uM): −2.038
CC(C)(C)c1cc(NC(=O)Nc2ccc(-c3cn4c(n3)sc3cc(OCCN5CCOCC5)ccc34)cc2)no1 [Quizartinib (AC220)] | 0.836 | 0.096 | 0.341 | 0.039 | −0.452 | −0.052 | −1.505 | −0.173 | 0.154 | 0.083 | −0.077 | −0.200 | 0.838 | 0.351 | 0.355 | 0.149 | −0.841 | −0.352 | −1.539 | −0.644 | –
O=C(NCc1cccc(O)c1)Nc1nc(-c2ccncc2)cs1 [RKI-1447] | −0.055 | −0.006 | −0.803 | −0.092 | −0.077 | −0.009 | −1.594 | −0.183 | −0.056 | −0.064 | −0.017 | −0.297 | −0.948 | −0.397 | −0.441 | −0.184 | −0.540 | −0.226 | −0.816 | −0.342 | –
Cc1nnc(C(=O)NC(C)(C)c2nc(C(=O)NCc3ccc(F)cc3)c(O)c(=O)n2C)o1 [Raltegravir (MK-0518)] | 1.627 | 0.187 | 0.302 | 0.035 | 0.254 | 0.029 | 0.366 | 0.042 | 0.137 | 0.037 | 0.122 | 0.183 | 0.258 | 0.108 | 0.224 | 0.094 | 0.471 | 0.197 | 0.407 | 0.170 | –
CO[C@H]1C[C@@H]2CC[C@@H](C)[C@@](O)(O2)C(=O)C(=O)N2CCCC[C@H]2C(=O)O[C@H]([C@H](C)C[C@@H]2CC[C@@H](OP(C)(C)=O)[C@H](OC)C2)CC(=O)[C@H](C)/C=C(\C)[C@@H](O)[C@@H](OC)C(=O)[C@H](C)C[C@H](C)/C=C/C=C/C=C/1C [Ridaforolimus (Deforolimus, MK-8669)] | 0.041 | 0.005 | 1.012 | 0.116 | 0.646 | 0.074 | 0.237 | 0.027 | 0.050 | 0.069 | 0.019 | 0.039 | 1.011 | 0.423 | 0.157 | 0.066 | 0.659 | 0.276 | 0.505 | 0.211 | –
COc1cc(OC)c(/C=C/S(=O)(=O)Cc2ccc(OC)c(NCC(=O)O)c2)c(OC)c1 [Rigosertib (ON-01910)] | −2.105 | −0.242 | −1.831 | −0.210 | −2.306 | −0.265 | −2.107 | −0.242 | −0.309 | −0.355 | −0.340 | −0.330 | −2.162 | −0.905 | −3.069 | −1.285 | −3.984 | −1.668 | −2.022 | −0.847 | –
Cc1nn(-c2ccccc2)c(C)c1/C=N/N1CCN(Cc2ccccc2)CC1 [SANT-1] | 0.485 | 0.056 | 0.002 | 0.000 | 1.528 | 0.175 | −0.430 | −0.049 | 0.112 | 0.024 | 0.101 | −0.120 | 0.736 | 0.308 | 0.186 | 0.078 | 0.327 | 0.137 | −0.100 | −0.042 | –
CCn1c(N)c(C(=O)NC)c(=O)c2ccc(C#C[C@@](C)(O)COC)nc21 [SAR131675] | 0.483 | 0.055 | 0.774 | 0.089 | 0.181 | 0.021 | −0.766 | −0.088 | 0.148 | 0.096 | 0.026 | 0.000 | 0.419 | 0.175 | −0.201 | −0.084 | 0.169 | 0.071 | 0.149 | 0.062 | –
